According to patent US4782064A, “2-heteroaryl-alkyl-1H-benz[de]-isoquinoline-1,3(2H)-diones” (American Cyanamid Co., priority 1986, dated 1988):
Where a name gives a salt, the structure may show the parent alone.

Key:
[1] = molecular target: T1, thromboxane synthetase (Rattus norvegicus, UniProt P49430); test: inhibition of thromboxane (TX) formation in platelets (TXB2 by radioimmunoassay); assay type: cell-based, Okamoto-Aoki spontaneously hypertensive rats (SHR); settings: drug at 10^-4 M, 10 minutes at 37° C., washed SHR platelets, TXB2 RIA
T1 construct: The platelets were isolated by centrifuging the PRP for 10 minutes; endogenous in cells; host or cells: washed platelets from arterial blood of Okamoto-Aoki spontaneously hypertensive rats (Taconic Farms, Germantown, N.Y.)
T1 sequence (P49430 1-533): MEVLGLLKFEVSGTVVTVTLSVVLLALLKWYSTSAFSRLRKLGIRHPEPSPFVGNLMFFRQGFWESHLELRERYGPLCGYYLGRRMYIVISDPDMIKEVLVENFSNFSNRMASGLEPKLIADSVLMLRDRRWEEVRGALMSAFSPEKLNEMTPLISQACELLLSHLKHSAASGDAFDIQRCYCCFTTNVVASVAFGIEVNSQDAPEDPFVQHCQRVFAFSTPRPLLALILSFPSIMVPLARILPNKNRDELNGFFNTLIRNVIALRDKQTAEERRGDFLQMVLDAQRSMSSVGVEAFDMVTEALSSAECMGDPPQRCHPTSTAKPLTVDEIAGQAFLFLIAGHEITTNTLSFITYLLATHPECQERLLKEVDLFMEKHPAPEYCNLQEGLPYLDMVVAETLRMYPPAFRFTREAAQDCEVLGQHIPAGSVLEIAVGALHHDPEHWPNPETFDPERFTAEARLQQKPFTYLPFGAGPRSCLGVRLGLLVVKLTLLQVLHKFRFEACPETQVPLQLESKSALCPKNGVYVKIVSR
Procedure: From Okamoto-Aoki spontaneously hypertensive rats (SHR) (Taconic Farms, Germantown, N.Y.) between 19 and 24 weeks in age, under urethan anesthesia, […] of arterial blood was collected in one ml of 3.2% sodium citrate a polystyrene tube. The blood was diluted with 3 ml cold saline and centrifuged at room temperature for 15 minutes at 460×g. The platelet rich plasma (PRP) was separated. The platelets were isolated by centrifuging the PRP for 10 minutes at 1060×g nd were washed in 4 ml cold oxygenated Krebs phosphate buffer, pH 7.4. The chilled platelets recovered from centrifuging at 800×g for 10 minutes were resuspended in oxygenated Krebs phosphate buffer and diluted to contain 4.5-6.0×10^4 platelets/μl. The inhibition of thromboxane (TX) formation was studied by determining the concentration of thromboxane B2 (TXB2), the stable hydrolysis product of TXA2. Assay samples, prepared on ice, contained 200 μl platelet suspension, 50 μl saline, and 50 μl vehicle or drug under study at a concentration of 10^-4 M (with OKY-1581, UK-3724801, 1-benzylimidazole, and/or indometha standards). The samples were incubated for 10 minutes at 37° C. in a metabolic shaker. The reaction was terminated by immersing the tubes in an ice bath and adding 50 μl of 0.5M citric acid. The samples were centrifuged for 10 minutes in a refrigerated centrifuge and the supernatants thus obtained were decanted and stored at -20° C. The TXB2 content for each sample was determined by a direct radioimmunoassay (RIA) utilizing a TXB2 specific RIA kit purchased from New England Nuclear, Boston, Mass. and results expressed as pg TXB2 formed minute^-1 sample^-1, from which the percent inhibition of TXB2 formation was calculated.

[2] = system: spontaneously hypertensive rats; test: hypotensive activity in spontaneously hypertensive rats (mean arterial blood pressure); assay type: in vivo, spontaneously hypertensive rats of the Okamoto strain; settings: by gavage, 100 mg/kg or less, two doses 24 hours apart, measured 28 hours after the initial dose; starting average MABP 160±1.5 mm; number of rats in parentheses
Procedure: The novel compounds of the present invention are also active hypotensive agents and were tested for hypotensive activity by the method of P. S. Chan and D. Poorvin, Clinical and Experimental Hypertension, 1 (6), 817-830 (1979). Male, 16 week old, spontaneously hypertensive rats of the Okamoto strain, from Taconic Farms, Germantown, N.Y. having an average mean arterial blood pressure of 160±1.5 mm of mercury were used in the test. One to 3 rats were used per test compound. The rats were dosed by gavage with a test compound, suspended in 2% pre-boiled starch at a concentration of 50 mg/ml, at a dose of 100 mg/kg of body weight or less, with 0.9% sodium chloride loading at a dose of 25 ml/kg of body weight. A second identical dose of the test compound, without sodium chloride loading was given 24 hours later. At 28 hours after the initial dose, the mean arterial blood pressure (MABP) was measured by the method of Chan and Poorvir vide supra. The procedure was repeated in a second and third rat when necessary as specified in the referenced method.

[3] = system: ischemic myocardium; settings: canines; cited from earlier work
[4] = system: coronary arteries of guinea pigs and rabbits; settings: cited from earlier work

inhibition at 100 µM [1] [%]	Structure (SMILES)	MABP/mm Hg (no. of rats) [2] [mm Hg]	further results
89	O=C1c2cccc3cccc(c23)C(=O)N1CCCn1ccnc1 [2-[3(1 --H--imidazol-1-yl)propyl]-1 --H--benz[de]isoquinoline-1,3(2 --H)--dione]	103	
96	O=C1c2cccc3cccc(c23)C(=O)N1CCCn1cncn1 [2-[3-(1 --H--1,2,4-triazol-1-yl)-propyl]-1 --H--benz[de]isoquinoline-1,3(2 --H)--dione]		
97	O=C1c2cccc3cccc(c23)C(=O)N1C(CCn1ccnc1)c1ccccc1 (stereo not shown) [2-[3-(1 --H--imidazol-1-yl)-1-phenyl-propyl]-1 --H--benz[de]isoquinoline-1,3(2 -- H)--dione]		
99	CC(CN1C(=O)c2cccc3cccc(c23)C1=O)Cn1ccnc1 (stereo not shown) [2-[3-(1 --H--imidazol-1-yl)-2-methyl-propyl]-1 --H--benz[de]isoquinoline-1,3(2 --H)--dione]	134	
100	CC(CN1C(=O)c2cccc3cc([N+](=O)[O-])cc(c23)C1=O)Cn1ccnc1 (stereo not shown) [2-[3-(1 --H--imidazol-1-yl)-2-methyl-propyl]-5-nitro-1 --H--benz[de]-isoquinoline-1,3(2 --H)--dione]		
97	CC(CCN1C(=O)c2cccc3cccc(c23)C1=O)n1ccnc1 (stereo not shown) [2-[3-(1 --H--imidazol-1-yl)butyl]-1 --H--benz[de]isoquinoline-1,3(2 --H)--dione]	120	
100	CC(CCN1C(=O)c2cccc3cc([N+](=O)[O-])cc(c23)C1=O)n1ccnc1 (stereo not shown) [2-[3-(1 --H--imidazol-1-yl)butyl]-5-nitro-1 --H--benz[de]isoquinoline-1,3(2 --H)--dione]		
100	O=C1c2cccc3cc([N+](=O)[O-])cc(c23)C(=O)N1CCCn1ccnc1 [2-[3-(1 --H--imidazol-1-yl)propyl]-5-nitro-1 --H--benz[de]isoquinoline-1,3(2 --H)--dione]	97	
98	Cc1cn(CCCN2C(=O)c3cccc4cccc(c34)C2=O)cn1 [2-[3-(4-methyl-1 --H--imidazol-1-yl)-propyl]-1 --H--benz[de]isoquinoline-1,3(2 --H)--dione]		
96	O=C1c2cccc3cccc(c23)C(=O)N1CCCCn1ccnc1 [2-[4-(1H-Imidazol-1-yl)butyl]-1H-benz-[de]isoquinoline-1,3(2H)-dione]	106	
97	O=C1c2cccc3cc([N+](=O)[O-])cc(c23)C(=O)N1CCCCn1ccnc1 [2-[4-(1H-Imidazol-1-yl)butyl]-5-nitro-1H-benz[de]isoquinoline-1,3(2H)-dione]	123	
98	O=C1c2cccc3cccc(c23)C(=O)N1CCCCc1cccnc1 [2-[4-(3-pyridinyl)butyl]-1 --H--benz[de]isoquinoline-1,3(2 --H)--dione]	137	
100	O=C1c2cccc3cccc(c23)C(=O)N1CCCCCn1ccnc1 [2-[5-(1 --H--imidazol-1-yl)pentyl)-1 --H--benz[de]isoquinoline-1,3(2 --H)--dione]		
98	O=C1c2cccc3cc([N+](=O)[O-])cc(c23)C(=O)N1CCCCCn1ccnc1 [2-[5-(1 --H--imidazol-1-yl)pentyl)-5-nitro-1 --H--benz[de]isoquinoline-1,3(2 --H)--dione]		
98	O=C1c2cccc3cccc(c23)C(=O)N1CCCCCCCCn1ccnc1 [2-[8-(1H-Imidazol-1-yl)octyl]-1H-benz[de]isoquinoline-1,3(2H)-dione]		
94	O=C1c2cccc3cc([N+](=O)[O-])cc(c23)C(=O)N1CCc1cccnc1 [5-Nitro-2-[2-(3-pyridinyl)ethyl]-1 --H--benz[de]isoquinoline-1,3(2 --H)--dione]		
94	O=C1c2cccc3cc([N+](=O)[O-])cc(c23)C(=O)N1CCCn1cncn1 [5-Nitro-2-[3-(1 --H--1,2,4-triazol-1-yl)propyl]-1 --H--benz[de]isoquinoline-1,3(2 --H)--dione]	127	
89	O=C1c2cccc3cc([N+](=O)[O-])cc(c23)C(=O)N1CCCn1ccnc1-c1ccccc1 [5-Nitro-2-[3-(2-phenyl-1 --H--imidazol-1-yl)propyl]-1 --H-- benz[de]-isoquinoline-1,3(2 --H)--dione]		
94	O=C1c2cccc3cc([N+](=O)[O-])cc(c23)C(=O)N1CCCCc1cccnc1 [5-nitro-2-[4-(3-pyridinyl)butyl]-1 --H--benz[de]isoquinoline-1,3(2 --H)--dione]		
96	Nc1ccc2c3c(cccc13)C(=O)N(CCCCn1ccnc1)C2=O [6-Amino-2-[4-(1 --H--imidazol-1-yl)butyl]-1 --H--benz[de]isoquinoline-1,3-(2 --H)--dione dihydrochloride]	115	
95	O=C1c2cccc3c(Cl)ccc(c23)C(=O)N1CCCn1ccnc1 [6-Chloro-2-[3(1 --H--imidazol-1-yl)-propyl]-1 --H--benz[de]isoquinoline-1,3(2 --H)--dione monohydrochloride]		
96	O=C1c2cccc3c(Cl)ccc(c23)C(=O)N1CCCCn1ccnc1 [6-Chloro-2-[4-(1H-imidazol-1-yl)butyl]-1H-benz[de]isoquinoline-1,3(2H)-dione monohydrochloride]		
94	O=C1c2cccc3c(Cl)ccc(c23)C(=O)N1CCCCCn1ccnc1 [6-Chloro-2-[5-(1 --H--imidazol-1-yl)pentyl]-1 --H--benz[de]isoquinoline-1,3-(2 --H)--dione]		
	CCCCC[C@H](O)/C=C/[C@@H]1[C@H]2C/C(=C/CCCC(=O)O)O[C@H]2C[C@H]1O [PGI2, Prostacyclin]		effects on ischemic myocardium [3]: beneficial effects
	CCCCC[C@H](O)/C=C/[C@H]1O[C@H]2C[C@H](O2)[C@@H]1C/C=C\CCCC(=O)O [TXA2, thromboxane A2]		effect of injection into coronary arteries [4]: causes myocardial ischemia and subendocardial necrosis
